Structures are written as SMILES. Where a name gives a salt, the structure may show the parent alone.

Two compounds from patent US12459954B2, “Crystalline form a of GLP-1 receptor agonist and preparation method therefor” (Hangzhou Zhongmei Huadong Pharmaceutical Co., Ltd., priority 2020, dated 2025) can be followed below.

Assay type in all cases: physicochemical
Series [1] is described as follows: Hygroscopic weight increment on placement (water absorption). The settings on record: for weight increase from absorption of water: after 5 days under certain (experimental) / similar conditions.
The nature of series [2]: Study of stability: crystal form stability by detecting the change of crystal form by XRPD. As for the experimental part: X-ray powder dfraction (XRPD): Empyren; test conditions: power 40 kV×250 mA, CuKα radiation; scanning range 3˜40° (2θ); step width 0.02°; scanning speed 5/min; scanning method: continuous scanning.
(§1) The crystal form A of OAD2 was subject to a stability study. The crystal form A was tested stability in H2O, SGF (simulated gastric fluid), FeSSIF (simulated intestinal fluid in the feeding state) and FaSSIF (simulated intestinal fluid in the fasting state). The chemical stability was expressed in the HPLC purity. The crystal form stability was expressed by detecting the change of crystal form by XPRD.

Series [3] in a line: Study of stability: chemical stability expressed in the HPLC purity. As for the experimental part: as §1
Experiment in series [4]: as above
The settings on record: dihydrochloride.

The mark [5] stands for this setting: Placed at room temperature and room humidity, 28 d.
[6] abbreviates: Room temperature and room humidity ± 25° C./60% RH, 28 d + 7 d.

As for `CC[C@@H](c1ccccc1)N1Cc2cc3c(cc2C[C@H]1C(=O)N[C@@H](Cc1ccc(-c2ccnc(C)c2C)cc1)C(=O)O)OC[C@H](c1ccc(OCc2ccc(Cl)c(Cl)c2)cc1)O3` [Crystal form A, (S)-2-(3S,8S)-3-(4-(3,4-dichlorobenzyloxy)phenyl-7-((S)-1-phenylpropyl)-2,3,6,7,8,9-hexahydro-[1,4]-dioxino[2,3-g]isoquinolin-8-ylformylamino)-3-(4-(2,3-dimethylpyridin-4-yl)phenyl)propionic acid], the results for the “weight increase from absorption of water” value in series [1] (listed as OAD2 crystalline Form A) and in series [1] (listed as crystal form A of OAD2) were “did not gain weight” and “no measurable amount weight increase”, respectively. Also, the “moisture absorption (in words)” value in series [1] (listed as crystal form A of the free base) is “not easy to absorb moisture”. Moreover, the “Change of crystal form” value in series [2] (25° C./75 ± 5% RH, 7 d) is listed as “no”; in series [2] (High temperature 60° C., 5 d) it was “no”; in series [2] (Initial, 0 d) it was “no”; in series [2] (setting [5]), “no”; in series [2] (setting [6]), “no”; in series [2] (Successively suspended in SGF/FeSSIF/FaSSIF/water, 1 d), “no”. Further, the “change of crystal form (overall finding)” value in series [2] (under various conditions) was “did not change the crystal form”. For the same compound, the “HPLC purity (area %)” value in series [3] (25° C./75 ± 5% RH, 7 d) is 98.90 area %; in series [3] (High temperature 60° C., 5 d, listed as Crystal form A (2#)), 98.12 area %; in series [3] (Initial, 0 d, listed as Crystal form A (1#)), 98.88 area %; in series [3] (Initial, 0 d, listed as Crystal form A (2#)) it was 98.13 area %; in series [3] (setting [5]) it was 98.69 area %; in series [3] (setting [6]), 98.67 area %. In addition, in series [3] (overall result of Table 3), the “chemical stability (overall finding)” value is reported as “good chemical stability”.

As for `CC[C@@H](c1ccccc1)N1Cc2cc3c(cc2C[C@H]1C(=O)N[C@@H](Cc1ccc(-c2ccnc(C)c2C)cc1)C(=O)O)OC[C@H](c1ccc(OCc2ccc(Cl)c(Cl)c2)cc1)O3` [OAD2 dihydrochloride, (S)-2-(3S,8S)-3-(4-(3,4-dichlorobenzyloxy)phenyl-7-((S)-1-phenylpropyl)-2,3,6,7,8,9-hexahydro-[1,4]-dioxino[2,3-g]isoquinolin-8-ylformylamino)-3-(4-(2,3-dimethylpyridin-4-yl)phenyl)propionic acid dihydrochloride, reference compound], the “weight increase from absorption of water” value turned out to be 8.3% in series [1] (dihydrochloride) and 8.3% in series [1] (listed as OAD2 dihydrochloride salt, dihydrochloride). Further, the “moisture absorption (in words)” value in series [1] (listed as dihydrochloride salt of OAD2, dihydrochloride) is reported as “absorbs moisture”. The “HPLC purity (area %)” value in series [4] (High temperature 60° C., 5 d) is listed as 98.70 area %; in series [4] (Initial, 0 d), 99.03 area %; in series [3] (25°C/75+5% RH, 5 d), 99.07 area %.
